The values that follow are results of earlier work, collected in patent US20070060740A1, “Protein crystal” (priority 2002, published 2007).

The structures appear in SMILES notation.

For the series, the system named is LXR. The note with it: non-steroidal synthetic LXR ligands, background statement; read-out: binding IC50.

As for `CCCc1c(OCCCSc2ccc(CC(=O)O)cc2Cl)ccc2c(C(F)(F)F)noc12` [F3MethylAA], the IC50 is […].

Consider `O=C(O)Cc1cccc(OCCCN(Cc2cccc(C(F)(F)F)c2Cl)CC(c2ccccc2)c2ccccc2)c1` [GW3965, 3-(3-(2-chloro-3-trifluoromethylbenzyl-2,2-diphenylethylamino)propoxy)phenylacetic acid], for which the IC50 was roughly 10 nM.

Consider `O=S(=O)(c1ccccc1)N(CC(F)(F)F)c1ccc(C(O)(C(F)(F)F)C(F)(F)F)cc1` [T0901317, N-(2,2,2-trifluoroethyl)-N-[4-[2,2,2-trifluoro-1-hydroxy-1-(trifluoromethyl)ethyl]phenyl]-benzenesulfonamide], for which the IC50 is […].

A word on the IC50: it is the midpoint of a concentration-inhibition curve.
